The source of these data is patent publication US10034939B2, “Synergistic combination of immunologic inhibitors for the treatment of cancer” (The University of Chicago, priority 2012, dated 2018).

The structures appear in SMILES notation.

Assay [1] concerns CD3^+ cells in the peripheral blood. Briefly: Depletion of circulating T cells by FTY720 in tumor-bearing mice. The format is in vivo. Particulars: 25 μg FTY-720 oral gavage on day 4, relative to vehicle-treated mice. On the procedure: Prior to the initiation of the therapy regimens (2.5 h pre-treatment), fingolimod (FTY-720, Enzo Life Sciences) was given to mice to inhibit lymphocyte migration out of lymphoid organs. FTY-720 stock solution (10 mg/ml in DMSO) was diluted to a 125 μg/ml concentration in PBS directly before administration. Mice received a dose of 25 μg FTY-720 or PBS containing DMSO as control via oral gavage. Therapy was initiated the same day (2.5 h delayed) and mice were analyzed on day 7 to perform the ex vivo functional assay as described above.
To determine whether the presence of CD8^+ T cells showing high levels of IL-2 production and proliferation within the tumor microenvironment following effective immunotherapy doublets was a result of new T cell migration into the tumor site or reactivation of T cells already present, FTY720 treatment was utilized to block the sphingosine 1-phosphate receptor-1 and thereby prohibit T cells from exiting lymphoid organs. Previous studies have shown that the effect can be detected as soon as 2 h after initial administration and is stable for up to 4 days. FTY720 was administered or control vehicle to tumor-bearing mice on day 4, 2.5 h prior to the initiation of immunotherapies. […] Overall, a 90% reduction in circulating CD3^+ T cells in FTY720-treated mice was detected (FIG. 13A). […]

The test system is the same in assay [2]. The note with it: previous studies; cited from earlier work.

In the case of `CCCCCCCCc1ccc(CCC(N)(CO)CO)cc1` [FTY720, fingolimod], the “reduction in circulating CD3^+ T cells” value in assay [1] amounted to 90%. Moreover, in assay [2], the “time after initial administration at which the effect can be detected” value is 2 h and the “time for which the effect is stable” value is reported as “up to 4 days”.
